pIC50: −log10 of the molar value. Where a name gives a salt, the structure may show the parent alone.
Assays:
[1] = molecular target: T1, neuronal nicotinic receptors (α4β2 subtype high affinity site) (Rattus norvegicus, UniProt P09483+P12390); assay: In vitro inhibition of 3H-epibatidin binding; details: rat forebrain homogenate, 0.3 nM 3H-epibatidin, 60 min at room temperature; read-out: 3H-epibatidin IC50
T1 construct: The forebrain (÷cerebellum) from a male Wistar rat (150-250 g) is homogenized; from tissue; host or cells: rat forebrain (without cerebellum) membrane homogenate
T1 sequence (P09483 31-630): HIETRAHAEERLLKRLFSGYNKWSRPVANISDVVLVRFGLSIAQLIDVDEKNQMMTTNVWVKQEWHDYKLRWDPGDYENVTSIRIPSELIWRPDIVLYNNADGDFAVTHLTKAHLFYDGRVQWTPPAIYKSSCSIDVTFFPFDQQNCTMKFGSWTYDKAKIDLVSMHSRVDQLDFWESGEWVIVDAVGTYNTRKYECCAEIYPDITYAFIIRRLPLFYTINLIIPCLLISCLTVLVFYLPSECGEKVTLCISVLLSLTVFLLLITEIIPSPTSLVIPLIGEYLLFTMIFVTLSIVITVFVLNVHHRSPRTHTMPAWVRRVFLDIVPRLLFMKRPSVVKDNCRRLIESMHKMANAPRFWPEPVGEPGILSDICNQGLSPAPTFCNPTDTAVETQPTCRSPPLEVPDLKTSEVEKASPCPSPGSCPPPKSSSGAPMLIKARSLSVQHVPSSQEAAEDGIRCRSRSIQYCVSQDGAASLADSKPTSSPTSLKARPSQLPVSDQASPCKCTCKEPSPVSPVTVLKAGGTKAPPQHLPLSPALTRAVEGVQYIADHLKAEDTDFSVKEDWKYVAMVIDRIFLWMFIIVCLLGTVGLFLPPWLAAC
T1 sequence (P12390 25-500): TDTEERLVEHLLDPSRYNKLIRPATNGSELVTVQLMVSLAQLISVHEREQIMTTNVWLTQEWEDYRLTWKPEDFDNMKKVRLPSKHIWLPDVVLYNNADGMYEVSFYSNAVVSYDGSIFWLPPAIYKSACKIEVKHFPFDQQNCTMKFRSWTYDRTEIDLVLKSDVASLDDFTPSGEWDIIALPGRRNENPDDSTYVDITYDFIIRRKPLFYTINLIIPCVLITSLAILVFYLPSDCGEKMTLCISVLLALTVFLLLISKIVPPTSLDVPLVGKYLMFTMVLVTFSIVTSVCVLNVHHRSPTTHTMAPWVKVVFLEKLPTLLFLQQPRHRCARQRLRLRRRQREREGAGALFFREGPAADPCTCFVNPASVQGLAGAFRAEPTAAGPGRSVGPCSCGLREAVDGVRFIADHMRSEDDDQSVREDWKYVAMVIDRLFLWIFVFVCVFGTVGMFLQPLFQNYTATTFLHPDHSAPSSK
Description: The high affinity binding site for ^3H-epibatidin is most certainly binding to the α4β2 subtype of nicotinic receptors. The identity of the low affinity site is still unknown; does it represent a second nicotinic receptor or a second site in the same receptor.
Tissue preparation: Preparations are performed at 0-4° C. unless otherwise indicated. The forebrain (÷cerebellum) from a male Wistar rat (150-250 g) is homogenized for 10-20 sec in 20 ml Tris, HCl (50 mM, pH 7.4) using an Ultra-Turrax homogenizer. The tissue suspension is centrifuged at 27,000×g for 10 min. The supernatant is discarded and the pellet is washed three times by centrifugation at 27,000×g for 10 min in 20 ml fresh buffer, and the final pellet is resuspended in fresh buffer (400 ml per g of original tissue) and used for binding assays.
Assay: Aliquots of 2.0 ml homogenate are added to 0.100 ml of test solution and 0.100 ml of ^3H-epibatidin (0.3 nM, final concentration), mixed and incubated for 60 min at room temperature. Non-specific binding is determined using (−)-nicotine (30 μM, final concentration). After incubation the samples are poured directly onto Whatman GF/C glass fibre filters (presoaked in 0.1% PEI for at least 20 min) under suction and immediately washed with 2×5 ml ice-cold buffer. The amount of radioactivity on the filters is determined by conventional liquid scintillation counting. Specific binding is total binding minus non-specific binding.

With `c1ccc2ncc(N3CCCNCC3)cc2c1` (as salt: fumaric acid salt) [Compound 2F, 1-(3-Quinolinyl)-homopiperazine] the melting point was 181 to 182 °C.
Compound `c1ccc(-c2cncc(N3CCCNCC3)c2)cc1` (as salt: fumaric acid salt) [Compound 2H, 1-(5-Phenyl-3-pyridyl)-homopiperazine] has a melting point of 185 to 186 °C.
`c1ccc2nc(N3CCCNCC3)cnc2c1` (as salt: fumaric acid salt) [Compound 2L, 1-(2-Quinoxalinyl)-homopiperazine] showed a melting point of 177 to 180 °C.
`COc1cncc(N2CCCN(C)C2)c1` (as salt: fumaric acid salt) [Compound 2M, 1-(5-Methoxy-3-pyridyl)-3-methyl-1,3-diazacyclohexane] showed a melting point of 149 to 151 °C.
`COc1cncc(N2CCNCC2)c1` (as salt: fumaric acid salt) [Compound 3B, 1-(5-Methoxy-3-pyridyl)-piperazine] showed a melting point of 168.5 to 170.5 °C.
For `COc1cncc(N2CCCN(C)CC2)c1` (as salt: fumaric acid salt) [Compound 3E, 1-(5-Methoxy-3-pyridyl)-4-methyl-homopiperazine], the melting point was 145 to 147 °C.
In the case of `CCOc1cncc(N2CCCNCC2)c1` (as salt: fumaric acid salt) [Compound 3H, 1-(5-Ethoxy-3-pyridyl)-homopiperazine], the melting point was 157.5 to 159 °C.
In the case of `Clc1cncc(N2CCCNCC2)n1` (as salt: fumaric acid salt) [Compound 3K, 1-(6-Chloro-2-pyrazinyl)-homopiperazine], the melting point was 180 to 181 °C.
Compound `Clc1cncc(N2CCNCC2)c1` (as salt: fumaric acid salt) [Compound 4B, 1-(5-Chloro-3-pyridyl)-piperazine] has a melting point of 195 to 196 °C.
With `CCOc1cncc(N2CCCN(C)CC2)c1` (as salt: fumaric acid salt) [Compound 4E, 1-(5-Ethoxy-3-pyridyl)-4-methyl-homopiperazine] the melting point was 150 to 152 °C.
Work on `CN1CCN(c2cncc(Cl)c2)CC1` (as salt: fumaric acid salt) [Compound 5A, 1-(5-Chloro-3-pyridyl)-4-Methyl-piperazine] yielded a melting point of 162 to 163 °C.
For `CN1CCCN(c2cncc(-c3ccccc3)c2)CC1` (as salt: fumaric acid salt) [Compound 5E, 4-Methyl-1-(5-phenyl-3-pyridyl)-homopiperazine], the melting point was 161 to 162 °C.
With `COc1cc(N2CCCNCC2)cnc1Cl` (as salt: fumaric acid salt) [Compound 5F, 1-(6-Chloro-5-methoxy-3-pyridyl)-homopiperazine] the melting point was 196 to 197 °C.
For `COCCOc1cncc(N2CCCNCC2)c1` (as salt: fumaric acid salt) [Compound 5H, 1-(5-Methoxyethoxy-3-pyridyl)-homopiperazine], the melting point was 126 to 127 °C.
For `Cc1ccc(N2CCCNCC2)nn1` (as salt: fumaric acid salt) [Compound 5K, 1-(6-Methyl-3-pyridazinyl)-homopiperazine], the melting point was 102 to 105 °C.
With `CN1CCN(c2cncc(-c3ccccc3)c2)CC1` (as salt: fumaric acid salt) [Compound 6A, 4-Methyl-1-(5-phenyl-3-pyridyl)-piperazine] the melting point was 179 to 180 °C.
In the case of `COc1cncc(N2CCCNCCC2)c1` (as salt: fumaric acid salt) [Compound 6B, 1-(5-Methoxy-3-pyridyl)-1,5-diazacyclooctane], the melting point was 158 to 160 °C.
Compound `CCCCOc1cncc(N2CCCN(C)CC2)c1` (as salt: fumaric acid salt) [Compound 6E, 1-(5-Butoxy-3-pyridyl)-4-methyl-homopiperazine] has a melting point of 127 to 129 °C.
`CC(C)COc1cncc(N2CCCNCC2)c1` (as salt: fumaric acid salt) [Compound 6H, 1-[5-(2-Methyl-propoxy)-3-pyridyl]-homopiperazine] gave a melting point of 121.9 to 123.3 °C.
For `CCOc1cncc(N2CCN(C)CC2)c1` (as salt: fumaric acid salt) [Compound 7A, 1-(5-Ethoxy-3-pyridyl)-4-methyl-piperazine], the melting point was 162.2 to 163.7 °C.
In the case of `Clc1ccc(N2CCCNCCC2)nn1` (as salt: fumaric acid salt) [Compound 7B, 1-(6-Chloro-3-pyridazinyl)-1,5-diazacyclooctane], the melting point was 176 to 178 °C.
Compound `Clc1ccc(N2CCCCNCC2)nn1` (as salt: fumaric acid salt) [Compound 8B, 1-(6-Chloro-3-pyridazinyl)-1,4-diazacyclooctane] has a melting point of 177 to 179 °C.
Work on `CC(C)COc1cncc(N2CCCN(C)CC2)c1` (as salt: fumaric acid salt) [Compound 8E, 4-Methyl-1-[5-(2-methyl-propyloxy)-3-pyridyl]-homopiperazine] yielded a melting point of 145.7 to 146.9 °C.
`Brc1ccc(N2CCCNCC2)cn1` (as salt: fumaric acid salt) [Compound 8K, 1-(6-Bromo-3-pyridyl)-homopiperazine] gave a melting point of 164 to 166 °C.
Compound `CCOc1cncc(N2CCN(CC)CC2)c1` (as salt: fumaric acid salt) [Compound 9D, 1-(5-Ethoxy-3-pyridyl)-4-ethyl-piperazine] has a melting point of 144.8 to 145.9 °C.
With `CN1CCCN(c2cncc(OCC3CC3)c2)CC1` (as salt: fumaric acid salt) [Compound 9E, 1-(5-Cyclopropylmethoxy-3-pyridyl)-4-methyl-homopiperazine] the melting point was 160.4 to 161.9 °C.
`c1ncc(N2CCCNCC2)cc1OCC1CC1` (as salt: fumaric acid salt) [Compound 9H, 1-(5-Cyclopropylmethoxy-3-pyridyl)-homopiperazine] gave a melting point of 154 to 156 °C.
`CCCOc1cncc(N2CCCN(C)CC2)c1` (as salt: fumaric acid salt) [Compound 10E, 4-Methyl-1-(5-propyloxy-3-pyridyl)-homopiperazine] showed a melting point of 148.8 to 153.5 °C.
Compound `CCCOc1cncc(N2CCCNCC2)c1` (as salt: fumaric acid salt) [Compound 10H, 1-(5-Propyloxy-3-pyridyl)-homopiperazine] has a melting point of 156.2 to 157.8 °C.
Compound `COc1cncc(N2CCCNC(C)CC2)c1` (centres unmarked) (as salt: fumaric acid salt) [Compound 11A] has a melting point of 137 to 139 °C.
`CCCCCCOc1cncc(N2CCCN(C)CC2)c1` (as salt: fumaric acid salt) [Compound 11E, 1-(5-Hexyloxy-3-pyridyl)-4-methyl-homopiperazine] showed a melting point of 128.7 to 130.8 °C.
For `CC(C)CCOc1cncc(N2CCCN(C)CC2)c1` (as salt: fumaric acid salt) [Compound 12E, 4-Methyl-1-[5-(3-methyl-butoxy)-3-pyridyl]-homopiperazine], the melting point was 130.4 to 131.9 °C.
For `CN1CCCN(c2cncc(OCC3CCCCC3)c2)CC1` (as salt: fumaric acid salt) [Compound 14E, 1-(5-Cyclohexylmethoxy-3-pyridyl)-4-methyl-homopiperazine], the melting point was 160.4 to 162 °C.
In the case of `CCCCCOc1cncc(N2CCCN(C)CC2)c1` (as salt: fumaric acid salt) [Compound 15E, 4-Methyl-1-(5-pentyloxy-3-pyridyl)-homopiperazine], the melting point was 129 to 130.8 °C.
With `CCCCCCCOc1cncc(N2CCCN(C)CC2)c1` (as salt: fumaric acid salt) [Compound 16E, 1-(5-Heptyloxy-3-pyridyl)-4-methyl-homopiperazine] the melting point was 120.2 to 121.8 °C.
`C/C=C/Oc1cncc(N2CCCN(C)CC2)c1` (as salt: fumaric acid salt) [Compound 17E, trans-4-Methyl-1-(5-propyl-1-en-oxy-3-pyridyl)-homopiperazine] gave a melting point of 126 to 128 °C.
Work on `CN1CCCN(c2cncc(SCc3ccccc3)c2)CC1` (as salt: fumaric acid salt) [Compound 18E, 4-Methyl-1-(5-thiobenzyl-3-pyridyl)-homopiperazine] yielded a melting point of 131 to 133 °C.
In the case of `CN1CCCN(c2cncc(-c3cccnc3)c2)CC1` (as salt: fumaric acid salt) [Compound 19E, 4-Methyl-1-[5-(3-pyridyl)-3-pyridyl]-homopiperazine], the melting point was 165.5 to 167.5 °C.
For `CN1CCCN(c2cncc(OC3CCCC3)c2)CC1` (as salt: fumaric acid salt) [Compound 25E, 1-(5-Cyclopentyloxy-3-pyridyl)-4-methyl-homopiperazine], the melting point was 123 to 125 °C.
`Oc1cncc(N2CCCNCC2)c1` (as salt: hydrochloric acid salt) gave a melting point of 290 to 300 °C.
For `COc1cncc(N2CCCN(C)CCC2)c1` [Compound 11A], the pIC50 [1] was 5.92.
